Entries after “also recorded” stand apart in the source; their conditions may differ.
The substances below were run on panel of up to 42 human chemokines (assay: Phage-display next generation sequencing screen of overlapping hexadecapeptide libraries, chemokines displayed on streptavidin beads). Details: log2E greater than 5, chemokines named by first part of UniProt Entry Name.
Assay type: binding
In short: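 Phage-display libraries of 55662 overlapping hexadecapeptides from tick and viral chemokine-binding proteins, human chemokines and chemokine receptors screened against up to 42 human chemokines, with hits found by next-generation sequencing. Peptides mapped to parent-protein position with log2 fold enrichment; regions of interest where cumulative residue log2 E exceeds the 95% upper CI of the protein median.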
In the case of CR23587 (TRLGVWLMAIVGTFLN), the “Chemokines Bound” value is reported as “CCL18, CCL20,; also recorded: CCL22”. CR24593 (VFLLSLLGNSLVMLVI) was tested, and the “Chemokines Bound” value was “CCL22, CCL25, and CXL10, CXL11, and SDF1, CXL13, and IL8”. CR24347 (VAYSLIFLLGVIGNVL) was tested, and the “Chemokines Bound” value was “CCL18, CCL19,; also recorded: CCL20, CXL11,; also recorded: CXL14”. CR26547 (WHWVFGSFLAKMVSTL) was tested, and the “Chemokines Bound” value was “CCL1, X3CL1,; also recorded: CXL14”. With CR26310 (VWLMSIVGTFLNVLVI) the “Chemokines Bound” value was “CCL17, CCL18,; also recorded: CCL2, CXL10,; also recorded: CXL11, SDF1,; also recorded: CXL14, IL8”. With CR3146 (DFLSKLLNMIFSISLY) the “Chemokines Bound” value was “CCL17, CCL18,; also recorded: CCL19, CCL2,; also recorded: CCL20, CXL14”. With CR23947 (TVKLIFAIVVAYFLSW) the “Chemokines Bound” value was “CCL17, CCL20,; also recorded: CCL22, CCL28,; also recorded: SDF1, CXL14”. With CR26155 (VVLIFLLSWLPYNLVL) the “Chemokines Bound” value was “CCL15, CCL28,; also recorded: CXL10, CXL13”. With CR27448 (YLLNLAISDLLFVFSL) the “Chemokines Bound” value was “CCL1, CCL2,; also recorded: CXL11, IL8”. In the case of CR3107 (DFAAILLYIDDFSAYF), the “Chemokines Bound” value is reported as “CCL18, X3CL1,; also recorded: CXL13”. CR5518 (FLGLMASVWTHLGMAL) was tested, and the “Chemokines Bound” value was “CCL2, CXL10,; also recorded: CXL11”. CR3716 (DVYLLNLAISDLLFVF) was tested, and the “Chemokines Bound” value was “CCL11, CCL2,; also recorded: CCL8, CXL11”. With CR2553 (CGIITSVLAWVTAILA) the “Chemokines Bound” value was “CCL11, CCL2, and CCL20, CCL22, and CCL28, CCL8, and X3CL1, CXL10, and SDF1, CXL14, and IL8”. CR26231 (VVTSVITWLVAVFASV) was tested, and the “Chemokines Bound” value was “CCL11, CCL17, and CCL18, CCL2, and CCL20, CCL25, and CCL8, CXL10, and CXL11, CXL14, and IL8”. With CR2291 (AWFLPIMYSIISFVGL) the “Chemokines Bound” value was “CCL1, CCL11, and IL8”. For “CR5175: chemokine binding peptide of Table 5A used in FIG. 5 combinations (FGVWLMSIVGTFLNML)”, the “Chemokines Bound” value was “CCL17, CCL22, and IL8”. In the case of CR28001 (YVSFISTTILFLIFSV), the “Chemokines Bound” value is reported as “CCL1, CCL15,; also recorded: CCL17, CCL19,; also recorded: CCL20, CCL22,; also recorded: CCL25, CCL28,; also recorded: X3CL1, CXL10,; also recorded: CXL11, CXL14”. In the case of CR5021 (FFSGMLLLLSISIDRY), the “Chemokines Bound” value is reported as “CCL18, CCL19,; also recorded: CCL20, CCL28”. “CR26327: chemokine binding peptide of Table 5A used in FIG. 5 combinations (VWVASILSSILDTIFH)” was tested, and the “Chemokines Bound” value was “CCL2, CXL11, and IL8”. CR26633 (WLMSIVGTFLNMLVIT) was tested, and the “Chemokines Bound” value was “CCL11, CCL17,; also recorded: CCL18, CCL19,; also recorded: CCL20, CCL22,; also recorded: CCL25, CCL28,; also recorded: X3CL1, CXL10”. For CR25244 (VLLSWKVLLTMVWGAA), the “Chemokines Bound” value was “CCL11, CCL17,; also recorded: CCL18, CCL19,; also recorded: CCL2, CCL20,; also recorded: CCL22, CCL25,; also recorded: CCL28, X3CL1,; also recorded: CXL10, CXL11,; also recorded: SDF1, CXL13,; also recorded: CXL14, IL8”.

Same assay, conditions: log2E greater than 5, chemokines named by first part of UniProt Entry Name, peptides binding complement C5a (control) excluded
With CR8677 (IAYSLISVFGLLGNIL) the “Chemokines Bound” value was “CCL2, CXL10,; also recorded: CXL13”. With CR8437 (HTVLLSWKVLLTMVWG) the “Chemokines Bound” value was “CCL1, CCL18,; also recorded: CCL19, CCL20,; also recorded: CXL13”. For EB963 (ENDKKVGLCLSTEYTD), the “Chemokines Bound” value was “CXL10, CXL11, and SDF1”. CR8251 (HNKTLSFISLLILSFL) was tested, and the “Chemokines Bound” value was “CCL2, X3CL1, and IL8”. CR6044 (FSALVTLITSLFGSIF) was tested, and the “Chemokines Bound” value was “CCL2, X3CL1,; also recorded: CXL10, IL8”. In the case of CR5768 (FMFVLSVLGNLTVVCV), the “Chemokines Bound” value is reported as “CCL19, CCL22,; also recorded: CCL25”. With VP6307 (MYSLVFVILMCIPFSF) the “Chemokines Bound” value was “X3CL1, CXL11,; also recorded: CXL13, IL8”. In the case of EDDYTAYAPLTCYFTN [HD842], the “Chemokines Bound” value is reported as “CCL1, CCL17, and CCL4, CCL5, and CCL8”. CR9889 (ISLLAEVLMFLFPNII) was tested, and the “Chemokines Bound” value was “CCL17, CCL18,; also recorded: CCL20, CCL25,; also recorded: CCL28, CXL13”. CR5737 (FLVVVYSIVSFLGILG) was tested, and the “Chemokines Bound” value was “CCL17, CCL18,; also recorded: CCL19, CCL2,; also recorded: CCL20, CCL22,; also recorded: CCL25, CCL28,; also recorded: X3CL1, CXL10,; also recorded: CXL13, CXL14”. CR7000 (GIFFIILLTIDRYLAV) was tested, and the “Chemokines Bound” value was “CCL17, X3CL1,; also recorded: CXL10”. In the case of VP1485 (DLAGLDSLTSPVYVMA), the “Chemokines Bound” value is reported as “CCL20, X3CL1, and SDF1”. For CR6520 (FWWIFAVIIAIPHFMV), the “Chemokines Bound” value was “CXL10, CXL11”. For CR7477 (GPGPWMNILWAWFIFW), the “Chemokines Bound” value was “CCL17, CCL18, and CCL19, CCL20, and CCL25, CXL13, and IL8”. With VP485 (AMMLSLLIAGMSLMLG) the “Chemokines Bound” value was “CCL11, CCL25, and CCL28, CCL5, and CXL11, CXL14, and IL8”. For CR9087 (IIALVVWGLSVIISSS), the “Chemokines Bound” value was “CCL1, CCL17,; also recorded: CCL18, CCL19,; also recorded: CCL2, CCL20,; also recorded: CCL22, CCL25,; also recorded: CCL28, X3CL1,; also recorded: CXL10, CXL11,; also recorded: SDF1, CXL13,; also recorded: CXL14, IL8”. CR5775 (FMIFAYTFIVKTLVQA) was tested, and the “Chemokines Bound” value was “CCL17, CCL18, and CCL28, X3CL1, and CXL11, SDF1, and CXL13, CXL14, and IL8”. In the case of CR6623 (FYYIGFYSSMFFITLM), the “Chemokines Bound” value is reported as “CCL1, CCL17,; also recorded: CCL18, CCL19,; also recorded: CCL20, CCL22,; also recorded: CCL28, X3CL1,; also recorded: CXL10, CXL11,; also recorded: SDF1, CXL14”. For VP6154 (MKSVLYLYILFLSCII), the “Chemokines Bound” value was “CCL1, X3CL1, and CXL10, CXL11, and IL8”. In the case of CR6624 (FYYLYVYLDIFSVVAV), the “Chemokines Bound” value is reported as “CCL15, CCL17, and CCL18, CCL19, and CCL20, CCL22, and CCL25, CCL28, and X3CL1, CXL10, and CXL11, SDF1, and CXL13, CXL14, and IL8”. For CR5669 (FLSIFYSVIFAIGLVG), the “Chemokines Bound” value was “CCL17, CCL18,; also recorded: CCL19, CCL20,; also recorded: CCL28, X3CL1,; also recorded: CXL10, CXL14”. In the case of CR9218 (IITSVLAWVTAILATL), the “Chemokines Bound” value is reported as “CCL17, CCL18, and CXL11, CXL14, and IL8”. With EB2905 (SACSGDCVCVHRDNEP) the “Chemokines Bound” value was “CXL10, CXL11, and SDF1”. CR9948 (ISVAWHWVFGSFLSKM) was tested, and the “Chemokines Bound” value was “CCL17, CCL18, and CCL20, CCL22, and CCL25, X3CL1, and CXL11, CXL14, and IL8”. With CR8812 (IFFIILLTIDRYLAIV) the “Chemokines Bound” value was “CCL18, CCL19,; also recorded: CCL22, CXL14”. CR5598 (FLLSLGIILFSYVEIL) was tested, and the “Chemokines Bound” value was “CCL18, CCL19, and CXL10, CXL11, and SDF1, CXL14, and IL8”. In the case of CR7854 (GWVFIFSSIQLATVVF), the “Chemokines Bound” value is reported as “CCL1, CCL15, and CCL17, CCL19, and CCL20, CCL22, and CCL28, X3CL1, and CXL10, CXL11, and SDF1, CXL13, and IL8”.

Same assay, conditions: log2E greater than 5, chemokines named by first part of UniProt entry name, C5a (control) binders excluded
“CR21238: chemokine binding peptide of Table 5A used in FIG. 5 combinations (SMILESLFSALVTLIT)” was tested, and the “Chemokines Bound” value was “CCL2, CXL11, and IL8”. In the case of CR1923 (ATFKILISIVWGVMPV), the “Chemokines Bound” value is reported as “CCL18, CCL28,; also recorded: X3CL1, CXL10,; also recorded: CXL11, SDF1,; also recorded: CXL13, IL8”. CR13203 (LLIMLFSYGFTLRTLF) was tested, and the “Chemokines Bound” value was “CCL18, CCL22, and CCL28, X3CL1, and SDF1”. In the case of CR13966 (LPTMVFSFFYVIFCKA), the “Chemokines Bound” value is reported as “CCL20, CCL25,; also recorded: SDF1, CXL14”. With CR14365 (LSLSISLLAEVLMFLF) the “Chemokines Bound” value was “CCL11, CCL19,; also recorded: CCL28, SDF1,; also recorded: CXL13, IL8”. In the case of CR10279 (IYLLNLAISNLLFLVT), the “Chemokines Bound” value is reported as “CCL28, SDF1,; also recorded: CXL13, IL8”. For CR21168 (SLVFIFGFVGNMLVIL), the “Chemokines Bound” value was “CCL1, CCL22,; also recorded: CCL28, CXL10,; also recorded: CXL13, CXL14”. With CR22363 (SYRSTYIILLLTWFAG) the “Chemokines Bound” value was “CCL18, X3CL1,; also recorded: CXL10”. With CR12869 (LIWVISLLVSLPQIIY) the “Chemokines Bound” value was “CCL17, CCL18, and X3CL1, CXL14, and IL8”. CR11776 (LAVKIVFSFIWGVLPT) was tested, and the “Chemokines Bound” value was “CCL17, CCL18,; also recorded: CCL19, CCL20,; also recorded: CCL22, CCL25,; also recorded: CCL8, X3CL1,; also recorded: CXL10, CXL11,; also recorded: SDF1, CXL13,; also recorded: CXL14, IL8”. In the case of CR20433 VP8386 (SFYVAMFASLSFITEI), the “Chemokines Bound” value is reported as “CCL1, X3CL1, and CXL10, CXL11, and IL8”. CR13967 (LPTMVFSFFYVIFSKA) was tested, and the “Chemokines Bound” value was “CCL1, CCL17,; also recorded: CCL18, CCL19,; also recorded: CCL20, CCL28,; also recorded: CXL10”. For CR14316 (LSISLLAEVLMFLFPN), the “Chemokines Bound” value was “CCL17, CCL18,; also recorded: CCL19, CCL2,; also recorded: CCL20, CCL22,; also recorded: CCL25, X3CL1,; also recorded: CXL14”. CR15063 (LWVVVFQFQHIMVGLI) was tested, and the “Chemokines Bound” value was “CCL17, CCL18, and CCL19, CCL2, and CCL20, CCL22, and CCL28, CCL8, and X3CL1, CXL10, and CXL11, SDF1, and CXL13, CXL14, and IL8”. For CR13507 (LLTWLAGLIFSVPAAV), the “Chemokines Bound” value was “CCL1, CCL11,; also recorded: CCL17, CCL18,; also recorded: CCL19, CCL2,; also recorded: CCL20, CCL22,; also recorded: CCL25, CCL28,; also recorded: X3CL1, CXL10,; also recorded: CXL11, SDF1,; also recorded: CXL14, IL8”. CR14548 (LTGFLFYLNMYASIYF) was tested, and the “Chemokines Bound” value was “CCL18, CCL19, and CCL22, CCL28, and CXL10, CXL11, and SDF1, CXL13, and IL8”. In the case of CR12163 (LFIGIKIVYAFLWGIF), the “Chemokines Bound” value is reported as “CCL18, CCL19,; also recorded: CCL2, CCL25,; also recorded: CCL28, X3CL1,; also recorded: CXL10, SDF1,; also recorded: CXL13, CXL14”. For CR20762 (SIYLLNLAISDLLFLF), the “Chemokines Bound” value was “CCL22, CCL28,; also recorded: CXL10, CXL11,; also recorded: SDF1, CXL13,; also recorded: CXL14, IL8”. CK3750 (PEWVNTPSTCCLKYYE) was tested, and the “Chemokines Bound” value was “CCL18, CCL19,; also recorded: CCL22, X3CL1”. CR13391 (LLQALYSAVVPLIYSC) was tested, and the “Chemokines Bound” value was “CCL1, CCL18,; also recorded: CXL14”.

— patent US20260234188A1, “CHEMOKINE-BINDING PEPTIDES” (Oxford University Innovation Limited, priority 2022, published 2026)
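Further: chemokine listed when log2 fold enrichment exceeds 5.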
